Earlier results, collected in US5315013A, “Substituted pyrazole angiotensin II antagonists” (E. I. Du Pont de Nemours and Company, priority 1992, dated 1994).

## CNCC(=O)N[C@@H](CCCN=C(N)N)C(=O)N[C@H](C(=O)N[C@@H](Cc1ccc(O)cc1)C(=O)N[C@H](C(=O)N[C@@H](Cc1cnc[nH]1)C(=O)N1CCC[C@H]1C(=O)N[C@@H](C)C(=O)O)C(C)C)C(C)C [Saralasin]
Arterial pressure; mammals and man, elevated pressure dependent on circulating AII
  lowering of arterial pressure: demonstrated to lower arterial pressure in mammals and man
Arterial pressure; oral
  effect of oral doses: oral doses being ineffective
Arterial pressure; pressure not sustained by AII
  pressor effects (agonistic character): generally elicits pressor effects when the pressure is not sustained by AII
AII; pithed rats
  effects of AII on the blood pressure blocked: blocks the effects of AII on the blood pressure of pithed rats
AII; potency in words
  competitive antagonism of the actions of AII: one of the most potent competitive antagonists of the actions of AII
